Data from US12630527B2, “Broad spectrum anti-cancer compounds” (The Regents of the University of California, priority 2019, dated 2026).
“Also recorded” adds a separate entry of the source.

How the values were obtained:
[1] = test system: TS576 glioblastoma stem cells; experiment: Tumorosphere (neurosphere) formation assay, TS576; format: cell-based, human; settings: 2 days
Experimental: (§1) To understand the effects of our FTO inhibitors on the self-renewal properties of GSCs, tumorospheres cultured from the patient-derived GSC line TS576 were treated with 30 μM of FTO-04, FTO-10, FTO-11, or FTO-12 (FIG. 29A-29B; cell line gifted from the Furnari lab).^45, 46 The GSCs were cultured in sphere-forming assays for 24 hours, then treated with either inhibitors or DMSO control for 2 days. The size of the tumorospheres was calculated using ImageJ.
(§2) Early passaged GSCs were used to understand the efficacy of ALK-04 on the self-renewal capacity of GSCs by tumorsphere-formation assay as described earlier^10, 11. In brief, GSCs were seeded at 4×10^4 cells in 24 well plate and cultured for 3 days followed by treatment with ALK-04 inhibitors at 20 μM daily for 3 days. After 3 days of treatment the images of the tumorospheres were imaged with phase contrast microscope and size was measured with Image J, to understand the effects of drugs on the self-renewal of GSCs on sphere formation. This process was also repeated for healthy neural stem cells (hNSCs) treated daily with 20 μM ALK-04 for three days to assess the therapeutic ratio.

GBM-GSC-23 = experiment: Tumorosphere (neurosphere) formation assay, GBM-GSC-23; format: cell-based, human; settings: 20 μM, 2 days, listed as FTO-04
FTO [2] = target: T1, FTO (Homo sapiens, UniProt Q9C0B1); experiment: Fluorescence enzymatic inhibition assay (m6A7-Broccoli / DFHBI-1T), FTO; format: biochemical; settings: fold more potent than MA (IC50=12.5)
T1 construct: SUMO (N); His10 (N); made in house; host or cells: E. coli BL21
T1 sequence (Q9C0B1 whole entry): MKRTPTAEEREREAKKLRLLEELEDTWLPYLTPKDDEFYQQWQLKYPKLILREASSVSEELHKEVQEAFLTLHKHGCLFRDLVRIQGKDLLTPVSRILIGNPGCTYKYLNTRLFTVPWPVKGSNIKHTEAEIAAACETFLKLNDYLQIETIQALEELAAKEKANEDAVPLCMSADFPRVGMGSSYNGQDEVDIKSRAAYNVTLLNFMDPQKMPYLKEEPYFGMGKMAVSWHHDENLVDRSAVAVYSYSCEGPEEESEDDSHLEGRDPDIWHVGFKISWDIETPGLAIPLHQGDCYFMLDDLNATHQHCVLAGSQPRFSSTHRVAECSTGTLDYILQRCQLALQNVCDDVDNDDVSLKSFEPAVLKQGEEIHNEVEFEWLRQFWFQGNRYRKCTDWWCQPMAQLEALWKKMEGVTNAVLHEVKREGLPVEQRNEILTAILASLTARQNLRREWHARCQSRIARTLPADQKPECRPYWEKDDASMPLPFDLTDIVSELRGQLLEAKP
Experimental: In order to determine their efficacy as FTO inhibitors, the compounds were screened by a fluorescence enzymatic inhibition assay developed previously by the Jaffrey lab.^44 Briefly, a nonfluorescent methylated RNA substrate termed “m6A7-Broccoli” is incubated with FTO in the presence of 2-oxoglutarate (300 μM), (NH4)2Fe(SO4)2·6H2O (300 μM), and L-ascorbate (2 mM) for 2 hours at room temperature in reaction buffer (50 mM NaHEPES, pH 6).
E. coli BL21 competent cells (New England Biolabs) were transformed with pET28-SUMO-His10-FTO plasmid (a generous gift from the Jaffrey lab) by heat shock and spread on a LB Kanamycin agar plate, then incubated overnight at 37° C. 2-3 colonies were picked and transferred to 5 mL of LB media treated with kanamycin (0.5 mg mL^−1 final concentration), then grown overnight shaking at 37° C. The overnight culture was then transferred to 2 L of LB kanamycin media and incubated at 37° C. until OD 0.8. The culture was cooled at 4° C. for 20 mins and induced with 0.5 mM isopropyl β-D-1-thiogalactopyranoside (IPTG), then grown shaken at 16° C. Cell pellets were collected by centrifugation (5,000 g for 10 min at 4° C.) and the supernatant was discarded. The pellets were resuspended in B-PER Bacterial Protein Extraction Reagent (6 mL per gram) with DNase 1 (5 U per mL, RNase-free) and incubated at 4° C. for 1 hour. The suspension was centrifuged at 10,000 g for 20 min and the supernatant was transferred to a Talon Metal Affinity Resin column that had been pre-equilibrized with binding buffer (50 mM NaH2PO4 pH 7.2, 300 mM NaCl, 20 mM imidazole, 1 mM β-mercaptoethanol in RNase-free water). […] The eluant was combined and transferred to a Slyde-A-Lyzer Dialysis Cassette (20,000 MWCO, Thermo Scientific) and dialyzed overnight at 4° C. against dialysis buffer (50 mM Tris-HCl pH 7.4, 100 mM NaCl, 5 mM B-mercaptoethanol, 5% (v/v) glycerol in RNase-free water). […] ALKBH5 was expressed and purified from pET28-SUMO-His10-ALKBH5 plasmid by the same procedure described above.
Inhibitors were added in concentrations ranging from 0.008-40 μM; all inhibitors were dissolved in DMSO and added to a final concentration of 0.2% DMSO. […] After incubation at room temperature for 2 hours, the plates were left at 4° C. overnight (16 hours) to allow DFHBI-1T to bind to A7-Broccoli RNA. […] Sigmoidal dose-response curves were fitted in GraphPad Prism 6. All assays were performed in triplicate, with additional repetitions added as necessary.

FTO [3] = target: T1, FTO; experiment: Steady-state (Michaelis-Menten) inhibition kinetics, FTO; format: biochemical; settings: velocity and double-reciprocal plots; 0-40 μM inhibitor, 0-10 μM substrate; listed as FTO-04
GBM-6 = experiment: Tumorosphere (neurosphere) formation assay, GBM-6; format: cell-based, human; settings: GBM-6, 20 μM, 2 days; listed as FTO-04
[4] = test system: human neural stem cells (hNSC); experiment: Neurosphere formation assay, healthy neural stem cells; format: cell-based; settings: healthy neural stem cells (hNSCs), 20 μM; listed as FTO-04
Experimental: as §1, §2

[5] = test system: m6A mRNA levels in TS576 cells; experiment: m6A dot blot assay on poly(A)+ mRNA; format: cell-based, human; settings: vs DMSO control, does not distinguish m6A and m6Am
Experimental: Next, we sought to determine if FTO-04 was able to alter m6A levels in purified mRNA from GSCs by m6A dot blot assay. TS576 cells were treated with 2, 10, and 50 ng shControl or shFTO to establish the relative change in m6A mRNA levels due to FTO knockdown. […] TS576 cells were then treated with 2, 10, and 50 ng of either DMSO or FTO-04 (FIG. 59B).
Polyadenylated mRNA were isolated from TS576 cells treated with either DMSO, FTO-04 (30 μM), and control (shControl) or FTO lentivirus (shFTO) knockdown samples by using Magnetic mRNA Isolation Kit (New England Biolabs, S1550S). Isolated mRNA was quantified, serially diluted and denatured at 95° C. for 3 min, then chilled on ice to prevent reformation of secondary structure of mRNA. Denatured mRNA samples were spotted on an Amersham Hybond-N^+ membrane (GE Healthcare, RPN3050B) and cross-linked to the membrane with UV radiation. After crosslinking the membrane was washed with phosphate buffer saline with 0.1% tween-20 (PBST) and blocked in 5% of non-fat milk in PBST buffer, and then incubated with anti-m^6A antibody (1:1000; abcam) overnight at 4° C. The membrane was then washed as before and incubated in HRP-conjugated secondary antibodies for 1 h at room temperature. The membrane was then developed with Thermo ECL SuperSignal West Femto Maximum Sensitivity Substrate (Thermo Fisher Scientific).

COc1ncc(-c2ccc3nc(N)sc3c2)cn1 [FTO-4, 6-(2-methoxypyrimidin-5-yl)benzo[d]thiazol-2-amine]
size of tumorospheres ([1]; TS576, 20 μM, listed as FTO-04): inhibits GSC neurospheres formation; also recorded: significantly decrease the size of tumorospheres | size of tumorospheres ([1]; TS576, 30 μM, vs vehicle control): significant reduction in size of the tumorospheres | size of tumorospheres (GBM-GSC-23): inhibits GSC neurospheres formation; also recorded: significantly decrease the size of tumorospheres | potency against FTO relative to MA (FTO [2]): approximately 4 | mechanism of inhibition of FTO (FTO [3]): competitive inhibitor; also recorded: competitive mechanism of inhibition | size of tumorospheres (GBM-6): inhibits GSC neurospheres formation; also recorded: significantly decrease the size of tumorospheres | neurosphere size [4]: without impairing hNSC neurosphere growth; also recorded: no alteration in neurosphere size | m6A mRNA levels [5]: increase m6A mRNA levels significantly compared to DMSO control
